Measured values taken from patent US8846719B2, “Isoxazolo-pyridine derivatives” (Roche Palo Alto LLC, priority 2007, dated 2014).

Molecular target: human GABA A receptor α5β3γ2 (Homo sapiens (Human), UniProt P18507+P31644)
Test: [3H]flumazenil competition binding assay, human GABA A α5β3γ2 receptors expressed in HEK293 cells
Details: human receptor; displacement of [3H]flumazenil (0.5 nM); means of two determinations; read-out: hKi GABAAa5
Outline: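 Ki values, each the mean of two runs, derive from displacement of [3H]flumazenil from human α5β3γ2 GABA A receptors transiently expressed in HEK293 membranes. Binding ran 1 h at 4° C in Krebs-tris, pH 7.5, before filter harvest and scintillation counting.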

Row | SMILES | Ki
1 | O=C(NCC(F)(F)F)c1ccc(OCc2conc2-c2ccccn2)nc1 [Example 362, 6-(3-Pyridin-2-yl-isoxazol-4-ylmethoxy)-N-(2,2,2-trifluoro-ethyl)-nicotinamide] | 8 nM
2 | O=C(NCCO)c1ccc(OCc2conc2-c2ccccn2)nc1 [Example 363, N-(2-Hydroxy-ethyl)-6-(3-pyridin-2-yl-isoxazol-4-ylmethoxy)-nicotinamide] | 19.9 nM
3 | CCNC(=O)c1ccc(OCc2conc2-c2ccccn2)nc1 [Example 364, N-Ethyl-6-(3-pyridin-2-yl-isoxazol-4-ylmethoxy)-nicotinamide] | 13.6 nM
4 | O=C(NC1CCOCC1)c1ccc(OCc2conc2-c2ccc(F)cn2)nc1 [Example 365, 6-[3-(5-Fluoro-pyridin-2-yl)-isoxazol-4-ylmethoxy]-(tetrahydro-pyran-4-yl)-nicotinamide] | 8 nM
5 | CC(C)NC(=O)c1ccc(OCc2conc2-c2ccc(F)cn2)nc1 [Example 366, 6-[3-(5-Fluoro-pyridin-2-yl)-isoxazol-4-ylmethoxy]-isopropyl-nicotinamide] | 6.8 nM
6 | O=C(NC1CC1)c1ccc(OCc2conc2-c2ccc(F)cn2)nc1 [Example 367, Cyclopropyl-6-[3-(5-fluoro-pyridin-2-yl)-isoxazol-4-ylmethoxy]-nicotinamide] | 13.5 nM
7 | CC(C)(CO)NC(=O)c1ccc(OCc2conc2-c2ccc(F)cn2)nc1 [Example 368, 6-[3-(5-Fluoro-pyridin-2-yl)-isoxazol-4-ylmethoxy]-(2-hydroxy-1,1-dimethyl-ethyl)-nicotinamide] | 44.9 nM
8 | O=C(NCC(F)(F)F)c1ccc(OCc2conc2-c2ccc(F)cn2)nc1 [Example 369, 6-[3-(5-Fluoro-pyridin-2-yl)-isoxazol-4-ylmethoxy]-(2,2,2-trifluoro-ethyl)-nicotinamide] | 9.3 nM
9 | O=C(NCCO)c1ccc(OCc2conc2-c2ccc(F)cn2)nc1 [Example 370, 6-[3-(5-Fluoro-pyridin-2-yl)-isoxazol-4-ylmethoxy]-(2-hydroxy-ethyl)-nicotinamide] | 21.4 nM
10 | CCNC(=O)c1ccc(OCc2conc2-c2ccc(F)cn2)nc1 [Example 371, Ethyl-6-[3-(5-fluoro-pyridin-2-yl)-isoxazol-4-ylmethoxy]-nicotinamide] | 14.1 nM
11 | CNC(=O)c1ccc(OCc2conc2-c2ccc(F)cn2)nc1 [Example 372, 6-[3-(5-Fluoro-pyridin-2-yl)-isoxazol-4-ylmethoxy]-methyl-nicotinamide] | 18.5 nM
